Assay results published in ChEMBL document CHEMBL1201862, “PubChem BioAssay data set” (2004).
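Five concentrations, 48 hours, 96-well plates. The concentration for 50% growth inhibition is given as GI50.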 Calls of active or inactive are those of the source. No stated cut-off is given here; in the data, active = GI50 up to about 1.1 µM and inactive = higher.

Tests used:
Test in all cases: NCI anticancer screen, dose series, 48 h
Malme-3M = system: Malme-3M
NCI-H460 = system: NCI-H460
CAKI-1 = system: CAKI-1
SK-MEL-2 = system: SK-MEL-2
SF-295 = system: SF-295
HT-29 = system: HT-29
SK-OV-3 = system: SK-OV-3
TK-10 = system: TK-10
IGROV-1 = system: IGROV-1
UO-31 = system: UO-31
HOP-62 = system: HOP-62
786-0 = system: 786-0
OVCAR-5 = system: OVCAR-5
COLO 205 = system: COLO 205
ACHN = system: ACHN
SF-268 = system: SF-268
NCI-H522 = system: NCI-H522
SF-539 = system: SF-539
CCRF-CEM = system: CCRF-CEM

Measured: GI50

CC1CCc2sc3nc(S)n(C)c(=O)c3c2C1 (centres undefined)
inactive: Malme-3M 53.6 µM | NCI-H460 35.4 µM | CAKI-1 39.2 µM | SK-MEL-2 40.4 µM | SF-295 31.1 µM | HT-29 40 µM | SK-OV-3 81.3 µM | TK-10 63 µM | IGROV-1 37.4 µM | UO-31 18.3 µM | HOP-62 39.7 µM | 786-0 50.8 µM | OVCAR-5 73.1 µM | COLO 205 67.5 µM | ACHN 37.3 µM | SF-268 48.1 µM | NCI-H522 30.1 µM

O=C(c1ccco1)n1c2ccc(Br)cc2c2nc3ccccc3nc21
inactive: Malme-3M 35 µM | NCI-H460 28.6 µM | CAKI-1 84.9 µM | SK-MEL-2 34.1 µM | SF-539 > 100 µM | SF-295 72.8 µM | HT-29 81.5 µM | TK-10 45.8 µM | IGROV-1 19.4 µM | UO-31 27 µM | HOP-62 16.1 µM | 786-0 18.7 µM | OVCAR-5 > 100 µM | COLO 205 > 100 µM | ACHN 27.4 µM | CCRF-CEM 40.8 µM | SF-268 27 µM | NCI-H522 12.1 µM

O=C1CSC(c2c[nH]c3ccccc23)N1c1ccc(Cl)cc1Cl (centres undefined)
inactive: NCI-H460 > 100 µM | SF-539 > 100 µM | SF-295 > 100 µM | HT-29 > 100 µM | SK-OV-3 > 100 µM | TK-10 > 100 µM | IGROV-1 > 100 µM | UO-31 > 100 µM | HOP-62 > 100 µM | 786-0 > 100 µM | OVCAR-5 > 100 µM | COLO 205 > 100 µM | CCRF-CEM > 100 µM | SF-268 > 100 µM | NCI-H522 > 100 µM

COc1ccc(C(=CCC(C)C2CCC3[C@@H]4C(OC(C)=O)CC5CC(OC(C)=O)CC[C@]5(C)C4CC(OC(C)=O)[C@]23C)c2ccc(OC)cc2)cc1 (some centres undefined)
inactive: NCI-H460 55.2 µM | SF-539 97.7 µM | SF-295 > 100 µM | HT-29 > 100 µM | SK-OV-3 > 100 µM | TK-10 > 100 µM | IGROV-1 > 100 µM | UO-31 47.4 µM | HOP-62 > 100 µM | 786-0 > 100 µM | OVCAR-5 72.8 µM | COLO 205 > 100 µM | ACHN 37.3 µM | CCRF-CEM 27.1 µM | SF-268 > 100 µM | NCI-H522 23.8 µM

C=CCCCN1CCCCC1=S
inactive: Malme-3M > 100 µM | NCI-H460 > 100 µM | SK-MEL-2 > 100 µM | SF-539 > 100 µM | SF-295 > 100 µM | HT-29 > 100 µM | SK-OV-3 63.4 µM | TK-10 > 100 µM | IGROV-1 > 100 µM | UO-31 > 100 µM | HOP-62 > 100 µM | 786-0 > 100 µM | OVCAR-5 > 100 µM | COLO 205 > 100 µM | ACHN > 100 µM | CCRF-CEM > 100 µM | NCI-H522 > 100 µM

CC12c3c4cc(Br)cc3Oc3cc(Br)cc(c31)Oc1cc(Br)cc(c12)O4
inactive: Malme-3M 19.9 µM | NCI-H460 63.1 µM | SK-MEL-2 23.1 µM | SF-539 34.6 µM | SF-295 > 100 µM | HT-29 76.9 µM | SK-OV-3 > 100 µM | TK-10 41.1 µM | IGROV-1 22.8 µM | UO-31 52 µM | HOP-62 60.4 µM | 786-0 19.8 µM | OVCAR-5 55.5 µM | COLO 205 25.6 µM | ACHN 51.9 µM | SF-268 10.5 µM

O=C(Nc1cc(Cl)ccc1Cl)c1cc2cccc(Cl)c2oc1=O
inactive: Malme-3M > 100 µM | NCI-H460 > 100 µM | SF-539 > 100 µM | SF-295 > 100 µM | HT-29 > 100 µM | SK-OV-3 > 100 µM | TK-10 > 100 µM | IGROV-1 > 100 µM | HOP-62 > 100 µM | 786-0 > 100 µM | COLO 205 > 100 µM | ACHN > 100 µM | CCRF-CEM > 100 µM | NCI-H522 > 100 µM

COc1ccc(/C=C2\C[C@H]3[C@@H]4CCC5=C/C(=N/O)CC[C@]5(C)[C@H]4CC[C@]3(C)\C2=N\O)cc1
inactive: Malme-3M 34.1 µM | NCI-H460 6.59 µM | CAKI-1 38.3 µM | SK-MEL-2 22.2 µM | SF-295 12.6 µM | HT-29 6.85 µM | SK-OV-3 42.7 µM | TK-10 37.1 µM | IGROV-1 37.3 µM | UO-31 4.53 µM | HOP-62 34.4 µM | 786-0 13.1 µM | OVCAR-5 36.3 µM | COLO 205 14.5 µM | ACHN 5.52 µM | SF-268 16.9 µM | NCI-H522 14.9 µM

O=C1C(Cl)=C(NCCOCCO)C(=O)c2c(O)ccc(O)c21
inactive: Malme-3M 2.82 µM | NCI-H460 3.36 µM | CAKI-1 23.9 µM | SK-MEL-2 8.67 µM | SF-539 4.53 µM | SF-295 11.6 µM | HT-29 3.08 µM | SK-OV-3 17.3 µM | TK-10 13.6 µM | IGROV-1 5.6 µM | UO-31 16 µM | HOP-62 20 µM | 786-0 4.97 µM | OVCAR-5 19.5 µM | COLO 205 2.17 µM | ACHN 15.4 µM | NCI-H522 1.98 µM

CC1(C)CC(=O)C(=CNC(=S)c2ccccc2)C(=O)C1
inactive: NCI-H460 > 100 µM | CAKI-1 > 100 µM | SK-MEL-2 > 100 µM | SF-539 > 100 µM | SF-295 > 100 µM | HT-29 > 100 µM | SK-OV-3 > 100 µM | TK-10 > 100 µM | IGROV-1 > 100 µM | UO-31 > 100 µM | HOP-62 > 100 µM | 786-0 > 100 µM | OVCAR-5 > 100 µM | COLO 205 > 100 µM | ACHN > 100 µM | CCRF-CEM 27 µM | SF-268 > 100 µM | NCI-H522 > 100 µM

c1ccc2c(c1)CCc1cc3cc4c(nc3nc1-2)-c1ccccc1CC4
inactive: Malme-3M > 100 µM | NCI-H460 > 100 µM | SF-539 > 100 µM | SF-295 > 100 µM | HT-29 > 10 µM | SK-OV-3 > 100 µM | TK-10 > 100 µM | IGROV-1 > 100 µM | UO-31 > 100 µM | HOP-62 > 100 µM | 786-0 83 µM | COLO 205 > 100 µM | ACHN > 100 µM | CCRF-CEM > 100 µM | SF-268 83 µM | NCI-H522 > 100 µM

NCCCOc1ccc([N+](=O)[O-])cc1Cl
inactive: Malme-3M > 100 µM | NCI-H460 > 100 µM | CAKI-1 28.1 µM | SK-MEL-2 > 100 µM | SF-539 > 100 µM | SF-295 > 100 µM | HT-29 > 100 µM | TK-10 > 100 µM | IGROV-1 > 100 µM | UO-31 81.8 µM | HOP-62 71.1 µM | 786-0 > 100 µM | OVCAR-5 > 100 µM | COLO 205 > 100 µM | ACHN > 100 µM | CCRF-CEM 42.9 µM | SF-268 > 100 µM | NCI-H522 5.62 µM
